Where “and” joins values, the source holds several entries; their conditions need not be identical. Identical values can stand only once. Entries after “also recorded” stand apart in the source; their conditions may differ. Each block holds one compound with its values, some of them ahead of it.
Experiments:
[1] = cited from earlier work
[2] = Applicant's meta analysis of reported edema rates in osteoarthritic populations by celecoxib dose
[3] = Combined plots and meta analysis of published celecoxib pharmacokinetic data; type: in vivo, human
Excerpt: In other words, the most efficacious celecoxib dosage is not well defined among the elderly. The problem may be more widespread than expected as elderly here is defined as patients greater than >40 or >50, not the usually definition of elderly (age greater >65).

[4] = in vivo
[5] = CELEBREX Package Insert table; cited from earlier work

upper limit and average edema event rate ([2]; 400 mg/day vs 100 or 200 mg/day): more than twice as high | edema event rates ([2]; 100 vs 200 mg/day dose): remarkably similar edema event rates | drug exposure as defined by AUC, elderly vs younger patients ([3]; age-based subgroups, FIG. 3): highly significant differences | % Edema ([4]; human): 20%
SMILES: Cc1ccc(-c2cc(C(F)(F)F)nn2-c2ccc(S(N)(=O)=O)cc2)cc1 [celecoxib]
incidence of edema ([1]; two trials with much higher incidence): 23% and 38% | incidence of edema at any site ([1]; usual incidence in clinical trials of celecoxib): about 3% | variability of pharmacokinetics; 100 mg vs 200 mg dose PK results ([3]; FIG. 2, listed as CELEBREX®): unexpectedly high; also recorded: substantial overlap | effect of anti-hypertensive class on incidence of edema in patients taking CELEBREX [4]: steady increase in incidence of edema | incidence of edema in patients taking CELEBREX with or without diuretic [4]: steady increase in incidence of edema | incidence of edema with vs without CELEBREX by arthritis group [4]: increased when patients was taken CELEBREX® for all groups except for RA and no Arthritis free patients | patients treated who develop edema [5]: 2.1%

SMILES: O=C(O)Cc1ccccc1Nc1c(Cl)cccc1Cl [diclofenac]
patients treated who develop edema [5]: 1.0%

SMILES: CC(C)Cc1ccc(C(C)C(=O)O)cc1 (centres unmarked) [ibuprofen]
patients treated who develop edema [5]: 3.5%

SMILES: COc1ccc2cc([C@H](C)C(=O)O)ccc2c1 [naproxen]
patients treated who develop edema [5]: 2.1%
